Experimental data reported in ChEMBL document CHEMBL4507268 (2021).

Assays:
[1] = system: Tyrosine-protein kinase ABL1 (Homo sapiens), P00519 [H396P]; settings: Compound concentration 1000.0 nM
[2] = system: Tyrosine-protein kinase ABL1 (Homo sapiens), P00519 [M351T]; settings: Compound concentration 1000.0 nM
[3] = target: Bone morphogenetic protein receptor type-1A (Homo sapiens) (UniProt P36894); settings: Compound concentration 1000.0 nM
[4] = target: Cyclin-dependent kinase 4 (Homo sapiens) (UniProt P11802); settings: Compound concentration 1000.0 nM
[5] = target: T1, Ephrin type-A receptor 3 (Homo sapiens) (UniProt P29320); settings: Compound concentration 1000.0 nM
T1 sequence (whole entry): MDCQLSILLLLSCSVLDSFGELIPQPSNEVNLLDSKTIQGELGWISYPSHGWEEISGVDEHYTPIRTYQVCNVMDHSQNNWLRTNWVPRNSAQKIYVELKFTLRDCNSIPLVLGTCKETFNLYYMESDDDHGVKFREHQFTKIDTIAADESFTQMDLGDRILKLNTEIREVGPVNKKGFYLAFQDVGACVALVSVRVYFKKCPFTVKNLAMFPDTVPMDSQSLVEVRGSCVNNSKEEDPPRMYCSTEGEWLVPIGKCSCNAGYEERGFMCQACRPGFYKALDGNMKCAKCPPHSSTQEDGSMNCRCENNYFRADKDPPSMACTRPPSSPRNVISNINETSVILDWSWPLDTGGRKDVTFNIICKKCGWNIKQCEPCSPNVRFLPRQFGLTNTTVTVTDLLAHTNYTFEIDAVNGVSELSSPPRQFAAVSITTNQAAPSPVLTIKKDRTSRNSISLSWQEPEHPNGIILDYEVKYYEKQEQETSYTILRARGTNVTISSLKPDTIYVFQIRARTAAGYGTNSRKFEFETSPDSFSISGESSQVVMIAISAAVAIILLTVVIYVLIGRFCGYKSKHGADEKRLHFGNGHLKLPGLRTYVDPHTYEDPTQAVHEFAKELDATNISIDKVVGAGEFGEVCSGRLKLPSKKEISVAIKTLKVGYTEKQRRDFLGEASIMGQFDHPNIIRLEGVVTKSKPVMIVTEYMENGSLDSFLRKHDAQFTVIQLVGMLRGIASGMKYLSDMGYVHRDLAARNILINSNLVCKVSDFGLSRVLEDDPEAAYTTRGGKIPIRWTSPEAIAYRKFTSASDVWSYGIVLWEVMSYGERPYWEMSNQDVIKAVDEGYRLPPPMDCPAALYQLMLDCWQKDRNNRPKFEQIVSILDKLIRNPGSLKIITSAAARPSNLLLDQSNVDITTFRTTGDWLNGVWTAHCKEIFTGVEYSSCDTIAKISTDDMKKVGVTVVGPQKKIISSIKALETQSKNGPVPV

[6] = target: Ephrin type-A receptor 4 (Homo sapiens) (UniProt P54764); settings: Compound concentration 1000.0 nM
[7] = target: Tyrosine-protein kinase Fer (Homo sapiens) (UniProt P16591); settings: Compound concentration 1000.0 nM
[8] = target: Cyclin-G-associated kinase (Homo sapiens) (UniProt O14976); settings: Compound concentration 1000.0 nM
[9] = target: Mitogen-activated protein kinase 10 (Homo sapiens) (UniProt P53779); settings: Compound concentration 1000.0 nM
[10] = target: Leucine-rich repeat serine/threonine-protein kinase 2 (Homo sapiens) (UniProt Q5S007); settings: Compound concentration 1000.0 nM
[11] = target: Macrophage-stimulating protein receptor (Homo sapiens) (UniProt Q04912); settings: Compound concentration 1000.0 nM
[12] = target: cAMP-dependent protein kinase catalytic subunit alpha (Homo sapiens) (UniProt P17612); settings: Compound concentration 1000.0 nM
[13] = target: Ribosomal protein S6 kinase alpha-6 (Homo sapiens) (UniProt Q9UK32); settings: Compound concentration 1000.0 nM
[14] = target: T2, Tyrosine-protein kinase receptor TYRO3 (Homo sapiens) (UniProt Q06418); settings: Compound concentration 1000.0 nM
T2 sequence (whole entry): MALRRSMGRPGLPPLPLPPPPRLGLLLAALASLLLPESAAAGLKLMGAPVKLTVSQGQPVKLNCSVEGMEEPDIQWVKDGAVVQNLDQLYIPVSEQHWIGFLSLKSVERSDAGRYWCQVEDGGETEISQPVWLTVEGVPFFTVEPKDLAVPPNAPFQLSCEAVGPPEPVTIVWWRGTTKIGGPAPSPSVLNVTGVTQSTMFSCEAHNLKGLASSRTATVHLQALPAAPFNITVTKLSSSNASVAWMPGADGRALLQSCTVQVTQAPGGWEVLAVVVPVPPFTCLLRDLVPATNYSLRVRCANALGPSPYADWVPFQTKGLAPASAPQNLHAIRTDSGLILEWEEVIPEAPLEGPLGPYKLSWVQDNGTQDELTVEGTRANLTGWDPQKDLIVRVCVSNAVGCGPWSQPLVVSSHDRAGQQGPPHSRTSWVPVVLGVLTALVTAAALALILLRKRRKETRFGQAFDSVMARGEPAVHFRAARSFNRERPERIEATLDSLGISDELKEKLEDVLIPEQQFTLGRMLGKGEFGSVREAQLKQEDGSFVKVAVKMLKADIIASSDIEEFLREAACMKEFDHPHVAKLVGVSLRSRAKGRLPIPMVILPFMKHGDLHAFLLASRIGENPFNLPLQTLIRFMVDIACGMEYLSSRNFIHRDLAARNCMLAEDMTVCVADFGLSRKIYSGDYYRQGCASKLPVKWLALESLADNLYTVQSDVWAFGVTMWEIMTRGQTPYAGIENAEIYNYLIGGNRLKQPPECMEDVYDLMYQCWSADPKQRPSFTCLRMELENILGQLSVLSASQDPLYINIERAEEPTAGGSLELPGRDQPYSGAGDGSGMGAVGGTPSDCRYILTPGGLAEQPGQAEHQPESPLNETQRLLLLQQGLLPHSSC

[15] = target: 5-hydroxytryptamine receptor 3A (Homo sapiens) (UniProt P46098); settings: Compound concentration 10.0 uM

Chain of Ribosomal protein S6 kinase alpha-6 (Homo sapiens) (Q9UK32 whole entry): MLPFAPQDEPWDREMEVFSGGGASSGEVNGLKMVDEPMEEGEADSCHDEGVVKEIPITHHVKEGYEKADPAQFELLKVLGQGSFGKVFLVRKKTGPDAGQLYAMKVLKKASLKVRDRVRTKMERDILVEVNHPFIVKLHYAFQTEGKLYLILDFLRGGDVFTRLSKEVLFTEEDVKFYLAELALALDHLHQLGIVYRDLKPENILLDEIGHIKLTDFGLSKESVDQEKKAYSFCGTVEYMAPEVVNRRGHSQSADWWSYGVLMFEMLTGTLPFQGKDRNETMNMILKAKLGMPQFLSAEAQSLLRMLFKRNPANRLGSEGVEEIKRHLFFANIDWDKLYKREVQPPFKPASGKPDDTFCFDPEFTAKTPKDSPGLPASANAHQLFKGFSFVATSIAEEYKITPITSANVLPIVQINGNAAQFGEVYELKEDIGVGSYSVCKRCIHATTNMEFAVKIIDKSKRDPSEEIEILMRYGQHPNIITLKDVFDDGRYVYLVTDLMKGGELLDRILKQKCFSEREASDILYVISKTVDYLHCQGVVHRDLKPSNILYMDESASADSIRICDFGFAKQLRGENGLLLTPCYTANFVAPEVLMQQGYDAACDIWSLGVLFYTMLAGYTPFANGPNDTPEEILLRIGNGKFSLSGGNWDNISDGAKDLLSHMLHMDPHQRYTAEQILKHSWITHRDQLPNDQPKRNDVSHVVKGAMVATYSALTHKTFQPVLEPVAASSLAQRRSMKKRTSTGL
Chain of Ephrin type-A receptor 4 (Homo sapiens) (P54764 whole entry): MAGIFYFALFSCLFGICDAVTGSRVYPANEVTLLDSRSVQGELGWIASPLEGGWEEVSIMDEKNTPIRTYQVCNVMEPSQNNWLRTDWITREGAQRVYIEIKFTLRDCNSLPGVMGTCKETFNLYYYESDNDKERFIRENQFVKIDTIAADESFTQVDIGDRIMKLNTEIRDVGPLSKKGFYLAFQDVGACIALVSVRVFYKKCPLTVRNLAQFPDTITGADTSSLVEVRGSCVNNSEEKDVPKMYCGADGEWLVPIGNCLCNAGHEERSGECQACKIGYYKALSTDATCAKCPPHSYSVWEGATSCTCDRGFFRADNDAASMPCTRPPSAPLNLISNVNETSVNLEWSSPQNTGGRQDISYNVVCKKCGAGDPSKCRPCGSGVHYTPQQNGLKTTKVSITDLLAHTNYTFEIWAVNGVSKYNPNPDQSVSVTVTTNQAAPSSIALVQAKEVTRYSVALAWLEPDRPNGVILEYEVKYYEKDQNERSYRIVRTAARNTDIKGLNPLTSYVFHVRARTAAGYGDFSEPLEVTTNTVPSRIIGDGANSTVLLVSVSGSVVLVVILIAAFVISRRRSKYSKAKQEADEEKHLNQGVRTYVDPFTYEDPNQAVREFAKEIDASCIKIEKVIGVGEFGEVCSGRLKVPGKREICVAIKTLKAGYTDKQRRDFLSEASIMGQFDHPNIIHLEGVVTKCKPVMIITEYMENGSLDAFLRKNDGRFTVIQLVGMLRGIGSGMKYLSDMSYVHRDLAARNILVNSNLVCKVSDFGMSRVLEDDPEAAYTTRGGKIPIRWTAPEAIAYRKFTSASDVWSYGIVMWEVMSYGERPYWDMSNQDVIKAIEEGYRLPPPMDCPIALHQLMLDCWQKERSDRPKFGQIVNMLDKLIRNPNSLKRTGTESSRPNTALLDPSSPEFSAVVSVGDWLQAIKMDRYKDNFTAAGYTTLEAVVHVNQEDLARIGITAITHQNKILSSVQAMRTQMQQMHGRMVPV
Chain of Tyrosine-protein kinase Fer (Homo sapiens) (P16591 whole entry, looked up): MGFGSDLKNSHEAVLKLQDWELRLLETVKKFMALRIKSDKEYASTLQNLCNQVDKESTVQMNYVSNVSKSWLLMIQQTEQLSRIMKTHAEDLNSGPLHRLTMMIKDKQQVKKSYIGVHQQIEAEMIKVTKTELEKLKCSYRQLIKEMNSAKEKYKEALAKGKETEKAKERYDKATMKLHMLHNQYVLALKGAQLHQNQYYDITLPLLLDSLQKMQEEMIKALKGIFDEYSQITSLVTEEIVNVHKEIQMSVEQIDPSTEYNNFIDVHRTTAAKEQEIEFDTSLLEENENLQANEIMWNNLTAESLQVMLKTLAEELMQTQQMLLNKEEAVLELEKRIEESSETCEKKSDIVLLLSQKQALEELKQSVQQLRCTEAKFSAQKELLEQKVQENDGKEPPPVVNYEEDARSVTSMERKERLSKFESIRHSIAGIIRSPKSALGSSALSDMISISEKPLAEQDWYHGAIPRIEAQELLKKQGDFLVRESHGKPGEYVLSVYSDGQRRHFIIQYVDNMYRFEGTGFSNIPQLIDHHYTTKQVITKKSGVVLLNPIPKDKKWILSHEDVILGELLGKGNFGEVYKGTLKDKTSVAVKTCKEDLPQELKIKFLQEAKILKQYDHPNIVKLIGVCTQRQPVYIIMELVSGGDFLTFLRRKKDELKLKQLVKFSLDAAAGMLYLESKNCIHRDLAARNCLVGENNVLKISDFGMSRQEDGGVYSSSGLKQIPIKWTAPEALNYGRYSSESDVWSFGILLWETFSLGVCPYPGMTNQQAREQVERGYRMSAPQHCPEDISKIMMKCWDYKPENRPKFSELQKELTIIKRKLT
Chain of Bone morphogenetic protein receptor type-1A (Homo sapiens) (P36894 whole entry): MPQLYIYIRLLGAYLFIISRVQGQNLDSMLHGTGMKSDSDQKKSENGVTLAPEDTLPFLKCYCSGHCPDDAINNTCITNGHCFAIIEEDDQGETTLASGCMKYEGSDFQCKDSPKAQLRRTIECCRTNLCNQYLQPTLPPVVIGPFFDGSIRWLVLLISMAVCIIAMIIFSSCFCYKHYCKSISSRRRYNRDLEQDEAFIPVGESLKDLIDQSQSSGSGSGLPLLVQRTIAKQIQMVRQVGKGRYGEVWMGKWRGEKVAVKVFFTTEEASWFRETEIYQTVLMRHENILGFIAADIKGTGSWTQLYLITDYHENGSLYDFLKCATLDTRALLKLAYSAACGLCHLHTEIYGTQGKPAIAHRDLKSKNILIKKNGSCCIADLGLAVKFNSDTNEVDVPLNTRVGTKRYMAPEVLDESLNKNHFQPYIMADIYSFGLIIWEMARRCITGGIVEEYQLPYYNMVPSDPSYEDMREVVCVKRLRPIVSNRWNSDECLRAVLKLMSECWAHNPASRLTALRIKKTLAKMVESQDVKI
Chain of Macrophage-stimulating protein receptor (Homo sapiens) (Q04912 25-304 limits assumed): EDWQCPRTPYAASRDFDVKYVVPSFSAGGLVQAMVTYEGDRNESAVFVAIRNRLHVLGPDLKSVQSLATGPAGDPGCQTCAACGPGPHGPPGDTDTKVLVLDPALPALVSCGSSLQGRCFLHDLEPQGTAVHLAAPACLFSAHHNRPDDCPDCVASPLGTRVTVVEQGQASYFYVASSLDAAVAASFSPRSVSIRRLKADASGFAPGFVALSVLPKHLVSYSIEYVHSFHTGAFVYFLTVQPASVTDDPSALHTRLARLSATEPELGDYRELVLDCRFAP
Chain of Macrophage-stimulating protein receptor (Homo sapiens) (Q04912 310-1400 limits assumed): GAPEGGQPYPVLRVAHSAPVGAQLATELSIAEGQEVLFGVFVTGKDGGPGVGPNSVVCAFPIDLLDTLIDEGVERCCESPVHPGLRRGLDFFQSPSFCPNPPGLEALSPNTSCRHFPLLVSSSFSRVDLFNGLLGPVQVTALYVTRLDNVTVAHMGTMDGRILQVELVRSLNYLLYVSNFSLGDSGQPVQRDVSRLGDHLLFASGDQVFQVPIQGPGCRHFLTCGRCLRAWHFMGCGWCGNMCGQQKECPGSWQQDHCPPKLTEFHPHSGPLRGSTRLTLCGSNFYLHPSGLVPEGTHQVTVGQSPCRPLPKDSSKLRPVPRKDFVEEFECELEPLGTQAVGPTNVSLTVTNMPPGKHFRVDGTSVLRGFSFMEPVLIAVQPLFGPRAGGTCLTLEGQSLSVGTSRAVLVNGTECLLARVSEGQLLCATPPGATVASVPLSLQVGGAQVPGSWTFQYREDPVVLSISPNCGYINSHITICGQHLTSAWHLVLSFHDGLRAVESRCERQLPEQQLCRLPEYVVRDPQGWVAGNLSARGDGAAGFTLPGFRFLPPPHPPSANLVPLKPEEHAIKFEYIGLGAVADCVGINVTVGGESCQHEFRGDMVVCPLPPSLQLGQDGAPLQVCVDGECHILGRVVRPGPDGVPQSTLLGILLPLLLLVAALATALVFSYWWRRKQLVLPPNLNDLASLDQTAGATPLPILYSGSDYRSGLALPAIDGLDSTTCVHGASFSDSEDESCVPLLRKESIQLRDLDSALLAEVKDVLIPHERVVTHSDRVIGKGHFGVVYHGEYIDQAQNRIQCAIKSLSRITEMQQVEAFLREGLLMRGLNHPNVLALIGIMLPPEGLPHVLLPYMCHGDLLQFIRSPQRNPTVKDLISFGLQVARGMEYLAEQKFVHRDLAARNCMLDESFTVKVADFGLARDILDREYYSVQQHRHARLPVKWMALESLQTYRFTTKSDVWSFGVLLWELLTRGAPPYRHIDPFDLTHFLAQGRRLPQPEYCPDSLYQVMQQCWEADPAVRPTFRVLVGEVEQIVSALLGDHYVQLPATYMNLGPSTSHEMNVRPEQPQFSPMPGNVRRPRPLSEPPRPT
Chain of Cyclin-dependent kinase 4 (Homo sapiens) (P11802 whole entry): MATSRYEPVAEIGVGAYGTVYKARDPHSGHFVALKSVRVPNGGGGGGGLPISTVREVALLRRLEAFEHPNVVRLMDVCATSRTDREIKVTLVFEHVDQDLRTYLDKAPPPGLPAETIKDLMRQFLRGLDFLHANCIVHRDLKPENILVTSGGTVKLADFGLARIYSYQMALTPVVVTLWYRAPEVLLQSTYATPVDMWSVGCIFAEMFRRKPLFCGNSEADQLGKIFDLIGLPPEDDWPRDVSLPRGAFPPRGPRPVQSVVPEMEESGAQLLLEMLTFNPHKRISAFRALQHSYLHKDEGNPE

Cc1nc(C2CCN(C(=O)c3ccc(OC(F)(F)F)cc3N)CC2)c2ncc(N3CCN(C)CC3)cc2n1 [BAY-693]
inactive: residual activity [1] 78% | residual activity [2] 100% | residual activity [3] 80% | residual activity [4] 100% | residual activity [5] 92% | residual activity [6] 100% | residual activity [7] 99% | residual activity [8] 100% | residual activity [9] 100% | residual activity [10] 89% | residual activity [11] 82% | residual activity [12] 100% | residual activity [13] 100% | residual activity [14] 100% | inhibition [15] 6.25%

CN1CCN(c2cnc3c(C4CCN(C(=O)c5ccc(OC(F)(F)F)cc5N)CC4)ncnc3c2)CC1 [BAY-885]
inactive: residual activity [1] 76% | residual activity [2] 100% | residual activity [3] 79% | residual activity [4] 100% | residual activity [5] 100% | residual activity [6] 100% | residual activity [7] 100% | residual activity [8] 100% | residual activity [9] 100% | residual activity [10] 100% | residual activity [11] 90% | residual activity [12] 100% | residual activity [13] 100% | residual activity [14] 100% | inhibition [15] 5.22%
